What was measured:
Experiment in all cases: cells
[1] = tested on: TE-1; format: functional, cell-based, Homo sapiens; conditions: Homo sapiens, TE-1;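 note: growth inhibition of the human TE-1 cell line, read out with a cell viability assay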
Description: SANGER: Inhibition of human TE-1 cell growth in a cell viability assay.

[2] = tested on: MZ2-MEL; format: functional, cell-based, Homo sapiens; conditions: Homo sapiens, MZ2-MEL;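 note: growth inhibition of MZ2-MEL cells read out with a cell viability assay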
Description: SANGER: Inhibition of human MZ2-MEL cell growth in a cell viability assay.

[3] = tested on: Calu-6; format: functional, cell-based, Homo sapiens; conditions: Homo sapiens, Calu-6;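 note: growth of human Calu-6 cells, read out by a cell viability assay, IC50 marking inhibition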
Description: SANGER: Inhibition of human Calu-6 cell growth in a cell viability assay.

[4] = tested on: GOTO; format: functional, cell-based, Homo sapiens; conditions: Homo sapiens, GOTO;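 note: growth inhibition of GOTO cells, read out by a cell viability assay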
Description: SANGER: Inhibition of human GOTO cell growth in a cell viability assay.

[5] = tested on: COLO-829; format: functional, cell-based, Homo sapiens; conditions: Homo sapiens, COLO-829
Description: SANGER: Inhibition of human COLO-829 cell growth in a cell viability assay.

[6] = tested on: MHH-NB-11; format: functional, cell-based, Homo sapiens; conditions: Homo sapiens, MHH-NB-11;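 note: growth inhibition of human MHH-NB-11 cells, read out by a cell viability assay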
Description: SANGER: Inhibition of human MHH-NB-11 cell growth in a cell viability assay.

[7] = tested on: MPP-89; format: functional, cell-based, Homo sapiens; conditions: Homo sapiens, MPP-89;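 note: growth inhibition of human MPP-89 cells, read out with a cell viability assay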
Description: SANGER: Inhibition of human MPP-89 cell growth in a cell viability assay.

[8] = tested on: D-247MG; format: functional, cell-based, Homo sapiens; conditions: Homo sapiens, D-247MG
Description: SANGER: Inhibition of human D-247MG cell growth in a cell viability assay.

[9] = tested on: D283 Med; format: functional, cell-based, Homo sapiens; conditions: Homo sapiens, D283 Med
Description: SANGER: Inhibition of human D-283MED cell growth in a cell viability assay.

[10] = tested on: SK-MEL-2; format: functional, cell-based, Homo sapiens; conditions: Homo sapiens, SK-MEL-2;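 note: growth inhibition of human SK-MEL-2 cells measured with a cell viability assay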
Description: SANGER: Inhibition of human SK-MEL-2 cell growth in a cell viability assay.

[11] = tested on: HH; format: functional, cell-based; conditions: Homo sapiens
Description: SANGER: Inhibition of human HH cell growth in a cell viability assay.

[12] = tested on: SW 962; format: functional, cell-based, Homo sapiens; conditions: Homo sapiens, SW 962;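 note: growth inhibition of human SW962 cells, read out by a cell viability assay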
Description: SANGER: Inhibition of human SW962 cell growth in a cell viability assay.

[13] = tested on: TE-8; format: functional, cell-based, Homo sapiens; conditions: Homo sapiens, TE-8;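 note: growth inhibition of TE-8 cells, measured with a cell viability readout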
Description: SANGER: Inhibition of human TE-8 cell growth in a cell viability assay.

[14] = tested on: KP-N-YS; format: functional, cell-based; conditions: Homo sapiens;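 note: cell viability assay measuring inhibition of cell line growth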
Description: SANGER: Inhibition of human KP-N-YS cell growth in a cell viability assay.

[15] = tested on: EOL1; format: functional, cell-based; conditions: Homo sapiens;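 note: growth inhibition of EoL-1 cells, read out by a cell viability assay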
Description: SANGER: Inhibition of human EoL-1-cell cell growth in a cell viability assay.

[16] = tested on: LS-1034; format: functional, cell-based, Homo sapiens; conditions: Homo sapiens, LS-1034
Description: SANGER: Inhibition of human LS-1034 cell growth in a cell viability assay.

[17] = tested on: 697; format: functional, cell-based; conditions: Homo sapiens
Description: SANGER: Inhibition of human 697 cell growth in a cell viability assay.

[18] = tested on: MFH-ino; format: functional, cell-based; conditions: Homo sapiens;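 note: growth inhibition of human MFH-ino cells, read out by a cell viability assay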
Description: SANGER: Inhibition of human MFH-ino cell growth in a cell viability assay.

[19] = tested on: LAMA-84; format: functional, cell-based; conditions: Homo sapiens;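 note: growth inhibition of LAMA-84 cells, read out with a cell viability assay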
Description: SANGER: Inhibition of human LAMA-84 cell growth in a cell viability assay.

[20] = tested on: SH-4; format: functional, cell-based, Homo sapiens; conditions: Homo sapiens, SH-4;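 note: growth inhibition of SH-4 cells, read out with a cell viability assay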
Description: SANGER: Inhibition of human SH-4 cell growth in a cell viability assay.

[21] = tested on: BB65-RCC; format: functional, cell-based, Homo sapiens; conditions: Homo sapiens, BB65-RCC;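 note: growth inhibition of the cell line, measured with a cell viability assay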
Description: SANGER: Inhibition of human BB65-RCC cell growth in a cell viability assay.

[22] = tested on: no-10; format: functional, cell-based, Homo sapiens; conditions: Homo sapiens;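 note: growth inhibition of no-10 cells, read out with a cell viability assay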
Description: SANGER: Inhibition of human no-10 cell growth in a cell viability assay.

[23] = tested on: LOX IMVI; format: functional, cell-based; conditions: Homo sapiens
Description: SANGER: Inhibition of human LOXIMVI cell growth in a cell viability assay.

[24] = tested on: HCC2218; format: functional, cell-based; conditions: Homo sapiens;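 note: cell viability assay read-out, with IC50 given as the concentration that inhibits growth of the cell line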
Description: SANGER: Inhibition of human HCC2218 cell growth in a cell viability assay.

[25] = tested on: TE-11; format: functional, cell-based, Homo sapiens; conditions: Homo sapiens, TE-11;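 note: growth inhibition of human TE-11 cells, read out by a cell viability assay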
Description: SANGER: Inhibition of human TE-11 cell growth in a cell viability assay.

[26] = tested on: KLE; format: functional, cell-based, Homo sapiens; conditions: Homo sapiens, KLE;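 note: growth inhibition of human KLE cells, read out with a cell viability assay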
Description: SANGER: Inhibition of human KLE cell growth in a cell viability assay.

[27] = tested on: A704; format: functional, cell-based, Homo sapiens; conditions: Homo sapiens, A704;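 note: growth inhibition of human A704 cells, read out with a cell viability assay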
Description: SANGER: Inhibition of human A704 cell growth in a cell viability assay.

Measured: IC50

C=C1C(=O)O[C@@H]2C3O[C@]3(C)CC/C=C(\C)CC[C@@H]12 (some centres not stated)
1340 nM: [22]
> 5000 nM: [1] | [2] | [3] | [4] | [5] | [6] | [7] | [8] | [9] | [10] | [11] | [12] | [13] | [14] | [15] | [16] | [18] | [19] | [20] | [21] | [23] | [24]
465 nM: [17]

CC1=C2C[C@H]3[C@@H](CC=C4C[C@@H](O)CC[C@@]43C)[C@@H]2CC[C@]12O[C@@H]1C[C@H](C)CN[C@H]1[C@H]2C [CYCLOPAMINE]
> 16000 nM: [1] | [2] | [3] | [4] | [5] | [6] | [7] | [8] | [9] | [10] | [11] | [12] | [13] | [14] | [15] | [16] | [17] | [18] | [19] | [20] | [21] | [23] | [24]
9900 nM: [22]

CS(=O)(=O)CCNCc1ccc(-c2ccc3ncnc(Nc4ccc(OCc5cccc(F)c5)c(Cl)c4)c3c2)o1 [LAPATINIB]
53.3 nM: [24]
> 2000 nM: [1] | [2] | [3] | [4] | [5] | [6] | [7] | [8] | [9] | [10] | [11] | [12] | [13] | [14] | [15] | [16] | [17] | [18] | [19] | [20] | [21] | [22] | [23]

CCc1nc(N)nc(N)c1-c1ccc(Cl)cc1 [PYRIMETHAMINE]
18300 nM: [16]
2660 nM: [19]
9920 nM: [1]
3600 nM: [17]
13000 nM: [23]
7280 nM: [5]
> 20000 nM: [2] | [3] | [4] | [7] | [8] | [9] | [10] | [11] | [12] | [13] | [14] | [15] | [18] | [20] | [21] | [22] | [24]
13700 nM: [6]

O=C(/C=C/c1ccccc1)NC(NC(=S)Nc1cccc2cccnc12)C(Cl)(Cl)Cl (configuration not stated) [SALUBRINAL]
3990 nM: [17]
15700 nM: [19]
> 16000 nM: [1] | [2] | [3] | [4] | [5] | [6] | [7] | [8] | [9] | [10] | [11] | [12] | [13] | [14] | [15] | [16] | [18] | [20] | [21] | [22] | [23] | [24]

CN1CCN(CCOc2cc(OC3CCOCC3)c3c(Nc4c(Cl)ccc5c4OCO5)ncnc3c2)CC1 [SARACATINIB]
> 2000 nM: [2] | [3] | [4] | [5] | [6] | [7] | [8] | [9] | [10] | [11] | [12] | [14] | [15] | [26] | [16] | [17] | [20] | [21] | [22] | [23] | [24]
160 nM: [19]
892 nM: [27]
1430 nM: [25]
1440 nM: [1]
873 nM: [13]
1780 nM: [18]

CO[C@H]1C[C@@H]2CC[C@@H](C)[C@@](O)(O2)C(=O)C(=O)N2CCCC[C@H]2C(=O)O[C@H]([C@H](C)C[C@@H]2CC[C@@H](O)[C@H](OC)C2)CC(=O)[C@H](C)/C=C(\C)[C@@H](O)[C@@H](OC)C(=O)[C@H](C)C[C@H](C)/C=C/C=C/C=C/1C [SIROLIMUS]
7.29 nM: [22]
77.2 nM: [25]
> 100 nM: [1] | [2] | [3] | [4] | [5] | [6] | [7] | [8] | [9] | [10] | [12] | [13] | [14] | [15] | [26] | [16] | [27] | [18] | [19] | [21] | [23] | [24]
11.4 nM: [11]
4.34 nM: [20]
6.28 nM: [17]

CNC(=O)c1cc(Oc2ccc(NC(=O)Nc3ccc(Cl)c(C(F)(F)F)c3)cc2)ccn1 [SORAFENIB]
1380 nM: [19]
2140 nM: [8]
3120 nM: [24]
656 nM: [20]
1620 nM: [22]
> 4000 nM: [1] | [2] | [3] | [4] | [5] | [6] | [7] | [9] | [10] | [11] | [12] | [13] | [14] | [15] | [16] | [17] | [23]
471 nM: [21]
2920 nM: [18]

CCC(=O)N1CCN(c2ccc(-n3c(=O)ccc4cnc5ccc(-c6cnc7ccccc7c6)cc5c43)cc2C(F)(F)F)CC1 [TORIN1]
135 nM: [11]
125 nM: [23]
65.8 nM: [26]
285 nM: [1]
181 nM: [7]
28.1 nM: [18]
15.8 nM: [22]
23.7 nM: [25]
30 nM: [15]
6.34 nM: [17]
23.4 nM: [2]
472 nM: [24]
464 nM: [10]
90.2 nM: [13]
57.6 nM: [12]
35.8 nM: [20]
364 nM: [16]
> 1200 nM: [6] | [8] | [9] | [14]
165 nM: [3]
97.4 nM: [27]
207 nM: [4] | [5]
21.7 nM: [19]
36.9 nM: [21]

Cc1cc(Nc2cc(N3CCN(C)CC3)nc(Sc3ccc(NC(=O)C4CC4)cc3)n2)n[nH]1 [TOZASERTIB]
1180 nM: [21]
544 nM: [14]
> 2000 nM: [1] | [2] | [3] | [4] | [5] | [6] | [7] | [8] | [9] | [10] | [11] | [12] | [26] | [16] | [27] | [20] | [22] | [23] | [24]
335 nM: [15]
24.7 nM: [17]
1800 nM: [13]
352 nM: [19]
9.9 nM: [18]
150 nM: [25]

Source: ChEMBL document CHEMBL1201861, “Genomics of Drug Sensitity in Cancer screening data, Wellcome Trust Sanger Institute”
